Source: the supplement of paper PMC10307832

Key:
Assay in all cases: relative viability (nuclei count vs DMSO), 5 days (fraction); higher = more cells survive
[1] = test system: PC-14
Procedure, shortened: (§1)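 Nuclei were stained with Hoechst during a one-step fixation (final 0.05% Triton X-100, 1% formaldehyde, 1 ug/ml Hoechst) carried out 5 days after dosing, then counted on 4× images. The cells, lung cancer lines in 1536-well plates, had been dosed by pin tool the day after seeding with one drug alone or a fixed anchor-drug dose plus five library-drug doses (not always all listed) in √10 steps. Relative viability is the nuclei count in treated wells divided by that in vehicle wells, and each value is the median of duplicate plates.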

[2] = test system: LK-2
Procedure, shortened: as §1

[3] = test system: NCI-H2009
Procedure, shortened: as §1

[4] = test system: EKVX
Procedure, shortened: as §1

[5] = test system: NCI-H1650
Procedure, shortened: as §1

[6] = test system: COR-L 105
Procedure, shortened: as §1

[7] = test system: NCI-H727
Procedure, shortened: as §1

[8] = test system: NCI-H2170
Procedure, shortened: as §1

[9] = test system: NCI-H3122
Procedure, shortened: as §1

[10] = test system: 201T
Procedure, shortened: as §1

[11] = test system: COR-L23
Procedure, shortened: as §1

[12] = test system: NCI-H1437
Procedure, shortened: as §1

[13] = test system: ABC-1
Procedure, shortened: as §1

[14] = test system: NCI-H1666
Procedure, shortened: as §1

[15] = test system: NCI-H838
Procedure, shortened: as §1

[16] = test system: HCC-366
Procedure, shortened: as §1

[17] = test system: HARA
Procedure, shortened: as §1

[18] = test system: NCI-H441
Procedure, shortened: as §1

[19] = test system: SW 900
Procedure, shortened: as §1

[20] = test system: BEN
Procedure, shortened: as §1

[21] = test system: LU99A
Procedure, shortened: as §1

[22] = test system: NCI-H661
Procedure, shortened: as §1

[23] = test system: CAL-12T
Procedure, shortened: as §1

O=C(O)c1ccc(-c2c[nH]c3ncc(-c4ccccc4)cc23)cc1C1CCCC1 + O=C(c1cc(Cc2n[nH]c(=O)c3ccccc23)ccc1F)N1CCN(C(=O)C2CC2)CC1 [Olaparib] (partner 8 µM) was tested, and the relative viability ([1]; first compound 0.04 µM) was 0.234, the relative viability ([1]; first compound 0.1265 µM) was 0.263 and the relative viability ([1]; first compound 0.4 µM) was 0.268. The relative viability ([1]; first compound 1.265 µM) was 0.243, the relative viability ([2]; first compound 0.04 µM) was 0.734 and the relative viability ([2]; first compound 0.1265 µM) was 0.641. It also gave a relative viability ([2]; first compound 0.4 µM) of 0.636, a relative viability ([2]; first compound 1.265 µM) of 0.648 and a relative viability ([3]; first compound 0.04 µM) of 0.679. The relative viability ([3]; first compound 0.1265 µM) was 0.708, the relative viability ([3]; first compound 0.4 µM) was 0.653 and the relative viability ([3]; first compound 1.265 µM) was 0.568. For the same molecule, the relative viability ([4]; first compound 0.04 µM) was 0.88, the relative viability ([4]; first compound 0.1265 µM) was 0.931 and the relative viability ([4]; first compound 0.4 µM) was 0.866. The relative viability ([4]; first compound 1.265 µM) was 0.657, the relative viability ([5]; first compound 0.04 µM) was 0.735 and the relative viability ([5]; first compound 0.1265 µM) was 0.815. It also gave a relative viability ([5]; first compound 0.4 µM) of 0.65, a relative viability ([5]; first compound 1.265 µM) of 0.606 and a relative viability ([6]; first compound 0.04 µM) of 0.723. For the same molecule, the relative viability ([6]; first compound 0.1265 µM) was 0.682, the relative viability ([6]; first compound 0.4 µM) was 0.75 and the relative viability ([6]; first compound 1.265 µM) was 0.647. It also gave a relative viability ([7]; first compound 0.04 µM) of 0.629, a relative viability ([7]; first compound 0.1265 µM) of 0.713 and a relative viability ([7]; first compound 0.4 µM) of 0.633. The relative viability ([7]; first compound 1.265 µM) was 0.563, the relative viability ([8]; first compound 0.04 µM) was 0.632 and the relative viability ([8]; first compound 0.1265 µM) was 0.606. For the same molecule, the relative viability ([8]; first compound 0.4 µM) was 0.569, the relative viability ([8]; first compound 1.265 µM) was 0.468 and the relative viability ([9]; first compound 0.04 µM) was 0.654. It also gave a relative viability ([9]; first compound 0.1265 µM) of 0.666, a relative viability ([9]; first compound 0.4 µM) of 0.602 and a relative viability ([9]; first compound 1.265 µM) of 0.617. It also gave a relative viability ([10]; first compound 0.04 µM) of 0.837, a relative viability ([10]; first compound 0.1265 µM) of 0.866 and a relative viability ([10]; first compound 0.4 µM) of 0.827. The relative viability ([10]; first compound 1.265 µM) was 0.775, the relative viability ([11]; first compound 0.04 µM) was 0.311 and the relative viability ([11]; first compound 0.1265 µM) was 0.353. It also gave a relative viability ([11]; first compound 0.4 µM) of 0.279, a relative viability ([11]; first compound 1.265 µM) of 0.258 and a relative viability ([12]; first compound 0.04 µM) of 0.666. It also gave a relative viability ([12]; first compound 0.1265 µM) of 0.633, a relative viability ([12]; first compound 0.4 µM) of 0.556 and a relative viability ([12]; first compound 1.265 µM) of 0.279. It also gave a relative viability ([13]; first compound 0.04 µM) of 1.03, a relative viability ([13]; first compound 0.1265 µM) of 0.726 and a relative viability ([13]; first compound 0.4 µM) of 0.611. It also gave a relative viability ([13]; first compound 1.265 µM) of 1.1, a relative viability ([14]; first compound 0.04 µM) of 0.781 and a relative viability ([14]; first compound 0.1265 µM) of 0.742. It also gave a relative viability ([14]; first compound 0.4 µM) of 0.741, a relative viability ([14]; first compound 1.265 µM) of 0.678 and a relative viability ([15]; first compound 0.04 µM) of 0.76. The relative viability ([15]; first compound 0.1265 µM) was 0.858, the relative viability ([15]; first compound 0.4 µM) was 0.732 and the relative viability ([15]; first compound 1.265 µM) was 0.468. It also gave a relative viability ([16]; first compound 0.04 µM) of 0.362, a relative viability ([16]; first compound 0.1265 µM) of 0.419 and a relative viability ([16]; first compound 0.4 µM) of 0.422. For the same molecule, the relative viability ([16]; first compound 1.265 µM) was 0.376, the relative viability ([17]; first compound 0.04 µM) was 0.878 and the relative viability ([17]; first compound 0.1265 µM) was 0.678. The relative viability ([17]; first compound 0.4 µM) was 0.886, the relative viability ([17]; first compound 1.265 µM) was 0.329 and the relative viability ([18]; first compound 0.04 µM) was 0.606. The relative viability ([18]; first compound 0.1265 µM) was 0.563, the relative viability ([18]; first compound 0.4 µM) was 0.467 and the relative viability ([18]; first compound 1.265 µM) was 0.265. For the same molecule, the relative viability ([19]; first compound 0.04 µM) was 0.768, the relative viability ([19]; first compound 0.1265 µM) was 1.04 and the relative viability ([19]; first compound 0.4 µM) was 0.702. The relative viability ([19]; first compound 1.265 µM) was 0.475, the relative viability ([20]; first compound 0.04 µM) was 1.05 and the relative viability ([20]; first compound 0.1265 µM) was 1.06. For the same molecule, the relative viability ([20]; first compound 0.4 µM) was 1.09, the relative viability ([20]; first compound 1.265 µM) was 0.944 and the relative viability ([21]; first compound 0.04 µM) was 0.255. The relative viability ([21]; first compound 0.1265 µM) was 0.302, the relative viability ([21]; first compound 0.4 µM) was 0.255 and the relative viability ([21]; first compound 1.265 µM) was 0.25. The relative viability ([22]; first compound 0.04 µM) was 0.698, the relative viability ([22]; first compound 0.1265 µM) was 0.772 and the relative viability ([22]; first compound 0.4 µM) was 0.744. The relative viability ([22]; first compound 1.265 µM) was 0.656, the relative viability ([23]; first compound 0.04 µM) was 0.656 and the relative viability ([23]; first compound 0.1265 µM) was 0.668. The relative viability ([23]; first compound 0.4 µM) was 0.566 and the relative viability ([23]; first compound 1.265 µM) was 0.379.
